Several values for one entry are separate records, joined by “and”; a condition that tells them apart may be missing. Equal entries are not always repeated. Where two headings read alike, the source gives them in different places.
Experiments:
[1] = target: KRAS G12C (Homo sapiens, UniProt P01116+P62937, G12C); experiment: Disruption of BRAF RBD interaction with Ras (FRET / MOA assay, with Cyclophilin A); assay type: biochemical
Method in brief: (§1)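 Cyclophilin A-dependent ternary complex assay. K-Ras loaded with nucleotide; BRAF RBD as effector. Cpd top 30 μM final, 3 h at 25 °C. Readout: TR-FRET ratio, IC50.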

[2] = target: KRAS G12D (Homo sapiens, UniProt P01116+P62937, G12D); experiment: as above; assay type: biochemical
Method in brief: as §1

[3] = target: KRAS G12S (Homo sapiens, UniProt P01116+P62937, G12S); experiment: as above; assay type: biochemical
Method in brief: as §1

[4] = target: KRAS G12V (Homo sapiens, UniProt P01116+P62937, G12V); experiment: as above; assay type: biochemical
Method in brief: as §1

[5] = target: KRAS G13C (Homo sapiens, UniProt P01116+P62937, G13C); experiment: as above; assay type: biochemical
Method in brief: as §1

[6] = target: KRAS G13D (Homo sapiens, UniProt P01116+P62937, G13D); experiment: as above; assay type: biochemical
Method in brief: as §1

[7] = target: KRAS WT (Homo sapiens, UniProt P01116+P62937); experiment: as above; assay type: biochemical; conditions: KRAS WT; read-out: KRAS WT FRET data IC50
Method in brief: as §1

[8] = target: NRAS G12C (Homo sapiens, UniProt P01111+P62937, G12C); experiment: as above; assay type: biochemical
[9] = target: KRAS Q61H (Homo sapiens, UniProt P01116+P62937, Q61H); experiment: as above; assay type: biochemical; conditions: KRAS Q61H; read-out: KRAS Q61H FRET data IC50
Method in brief: (§2)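 IC50 reflects compound-driven Ras:Cyclophilin A ternary complex displacing BRAF RBD, read as lowered TR-FRET ratio relative to DMSO after Eu anti-His (10 nM) and APC anti-GST (50 nM) detection for 1.5 h. Prior incubation 3 h, 25° C, with 12.5 nM GMPPNP-loaded Ras, 50 nM BRAF RBD, 25 μM Cyclophilin A; top compound 30 μM.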

[10] = target: NRAS Q61K (Homo sapiens, UniProt P01111+P62937, Q61K); experiment: as above; assay type: biochemical; conditions: NRAS Q61K; read-out: NRAS Q61K FRET data IC50
Method in brief: as §2

[11] = target: NRAS Q61R (Homo sapiens, UniProt P01111+P62937, Q61R); experiment: as above; assay type: biochemical; conditions: NRAS Q61R; read-out: NRAS Q61R FRET data IC50
Method in brief: as §2

[12] = tested on: NCI-H358 (K-Ras G12C); experiment: CellTiter-Glo cell viability assay, 5-day treatment; assay type: cell-based; conditions: Homo sapiens
Method in brief: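 Five-day compound treatment of plated cells; luminescent read after ~30 min at RT. Percent-of-DMSO data fit to a four-parameter logistic model.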

[13] = target: NRAS WT (Homo sapiens, UniProt P01111+P62937); experiment: Disruption of BRAF RBD interaction with Ras (FRET / MOA assay, with Cyclophilin A); assay type: biochemical; conditions: NRAS WT; read-out: NRAS WT FRET data IC50
Method in brief: as §2

[14] = KRAS G12C, read-out: KRAS G12C FRET data IC50
[15] = read-out: KRAS G12D FRET data, IC50
[16] = read-out: KRAS G12S FRET data, IC50
[17] = KRAS G12V, read-out: KRAS G12V FRET data IC50
[18] = KRAS G13C, read-out: KRAS G13C FRET data IC50
[19] = KRAS G13D, read-out: KRAS G13D FRET data IC50
[20] = NRAS G12C, read-out: NRAS G12C FRET data IC50
[21] = NCI-H358, H358, K-Ras G12C, read-out: Additional H358 Cell Viability assay data (K-Ras G12C, IC50)

KRAS G12C, sequence (P01116 1-169 isoform P01116-2 G12C): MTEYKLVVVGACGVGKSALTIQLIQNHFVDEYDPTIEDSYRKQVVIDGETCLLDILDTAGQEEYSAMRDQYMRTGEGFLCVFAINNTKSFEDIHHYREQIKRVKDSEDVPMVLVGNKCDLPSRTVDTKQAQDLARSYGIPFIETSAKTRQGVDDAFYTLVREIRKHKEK
KRAS G12C, sequence (P62937 whole entry): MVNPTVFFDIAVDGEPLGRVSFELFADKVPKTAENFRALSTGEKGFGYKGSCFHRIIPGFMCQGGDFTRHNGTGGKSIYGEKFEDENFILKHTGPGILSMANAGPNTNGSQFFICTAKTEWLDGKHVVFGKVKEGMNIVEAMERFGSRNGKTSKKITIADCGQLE
KRAS G13D, sequence (P01116 1-169 isoform P01116-2 G13D limits assumed): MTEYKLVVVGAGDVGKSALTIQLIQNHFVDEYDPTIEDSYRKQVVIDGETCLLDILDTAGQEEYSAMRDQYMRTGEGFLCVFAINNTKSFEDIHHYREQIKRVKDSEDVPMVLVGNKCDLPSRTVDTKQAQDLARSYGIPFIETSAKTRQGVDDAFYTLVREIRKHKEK
KRAS G13D, sequence (P62937 whole entry): as the sequence (P62937 whole entry) above
NRAS Q61R, sequence (P01111 whole entry Q61R): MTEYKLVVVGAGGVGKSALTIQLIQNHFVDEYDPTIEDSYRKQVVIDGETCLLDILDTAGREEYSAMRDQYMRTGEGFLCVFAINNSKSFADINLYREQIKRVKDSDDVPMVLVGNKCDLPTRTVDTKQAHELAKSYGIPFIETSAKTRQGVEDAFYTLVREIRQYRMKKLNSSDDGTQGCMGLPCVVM
NRAS Q61R, sequence (P62937 whole entry): as the sequence (P62937 whole entry) above
KRAS G12S, sequence (P01116 1-169 isoform P01116-2 G12S limits assumed): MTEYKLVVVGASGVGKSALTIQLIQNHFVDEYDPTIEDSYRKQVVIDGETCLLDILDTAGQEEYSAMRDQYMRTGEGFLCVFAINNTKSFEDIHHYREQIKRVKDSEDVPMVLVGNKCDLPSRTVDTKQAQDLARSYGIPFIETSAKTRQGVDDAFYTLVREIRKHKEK
KRAS G12S, sequence (P62937 whole entry): as the sequence (P62937 whole entry) above
NRAS G12C, sequence (P01111 whole entry G12C): as the sequence (P01111 whole entry Q61R) above, with G12C, R61Q counted along it
NRAS G12C, sequence (P62937 whole entry): as the sequence (P62937 whole entry) above
KRAS G12D, sequence (P01116 1-169 isoform P01116-2 G12D limits assumed): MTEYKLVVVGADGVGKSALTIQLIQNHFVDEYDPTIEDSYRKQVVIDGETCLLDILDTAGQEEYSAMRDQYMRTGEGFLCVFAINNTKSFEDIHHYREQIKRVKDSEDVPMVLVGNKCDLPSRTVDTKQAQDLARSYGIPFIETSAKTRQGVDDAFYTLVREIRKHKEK
KRAS G12D, sequence (P62937 whole entry): as the sequence (P62937 whole entry) above
KRAS G12V, sequence (P01116 1-169 isoform P01116-2 G12V limits assumed): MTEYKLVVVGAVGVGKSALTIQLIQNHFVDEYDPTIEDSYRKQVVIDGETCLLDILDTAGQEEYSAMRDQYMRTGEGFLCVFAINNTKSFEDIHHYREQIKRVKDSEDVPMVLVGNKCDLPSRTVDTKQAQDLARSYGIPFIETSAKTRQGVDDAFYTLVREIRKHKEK
KRAS G12V, sequence (P62937 whole entry): as the sequence (P62937 whole entry) above
NRAS Q61K, sequence (P01111 whole entry Q61K): as the sequence (P01111 whole entry Q61R) above, with R61K counted along it
NRAS Q61K, sequence (P62937 whole entry): as the sequence (P62937 whole entry) above
KRAS WT, sequence (P01116 1-169 isoform P01116-2 limits assumed): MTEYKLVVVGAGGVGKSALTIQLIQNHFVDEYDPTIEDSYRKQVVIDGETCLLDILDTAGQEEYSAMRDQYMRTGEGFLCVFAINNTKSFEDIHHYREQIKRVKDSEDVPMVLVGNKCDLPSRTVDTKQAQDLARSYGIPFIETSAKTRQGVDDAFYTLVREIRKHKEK
KRAS WT, sequence (P62937 whole entry): as the sequence (P62937 whole entry) above
KRAS G13C, sequence (P01116 1-169 isoform P01116-2 G13C): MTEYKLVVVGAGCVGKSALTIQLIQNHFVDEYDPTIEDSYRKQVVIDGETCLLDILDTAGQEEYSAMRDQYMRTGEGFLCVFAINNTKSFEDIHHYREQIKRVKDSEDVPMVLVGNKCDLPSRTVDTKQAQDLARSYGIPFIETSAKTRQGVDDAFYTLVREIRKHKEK
KRAS G13C, sequence (P62937 whole entry): as the sequence (P62937 whole entry) above
NRAS WT, sequence (P01111 whole entry): as the sequence (P01111 whole entry Q61R) above, with R61Q counted along it
NRAS WT, sequence (P62937 whole entry): as the sequence (P62937 whole entry) above
KRAS Q61H, sequence (P01116 1-169 isoform P01116-2 Q61H limits assumed): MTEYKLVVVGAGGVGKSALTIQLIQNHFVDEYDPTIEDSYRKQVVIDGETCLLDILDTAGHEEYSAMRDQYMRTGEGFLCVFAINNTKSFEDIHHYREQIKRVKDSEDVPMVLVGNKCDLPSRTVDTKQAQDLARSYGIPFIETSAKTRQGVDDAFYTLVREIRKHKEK
KRAS Q61H, sequence (P62937 whole entry): as the sequence (P62937 whole entry) above

Compound | IC50 [1, 14] | IC50 [2, 15] [µM] | IC50 [3, 16] [µM] | IC50 [4, 17] [µM] | IC50 [5, 18] [µM] | IC50 [7] [µM] | IC50 [9] [µM] | IC50 [10] [µM] | IC50 [11] [µM] | IC50 [13] [µM] | also measured
C=CC(=O)N1CC[C@H](C(=O)N(C)[C@H](C(=O)N[C@H]2Cc3cc(O)cc(c3)-c3ccc4c(c3)c(c(-c3cnccc3[C@H](C)OC)n4CC)CC(C)(C)COC(=O)[C@@H]3CCCN(N3)C2=O)C(C)C)C1 [Example A076] | 0.01 to 0.1 µM and < 0.01 µM | 0.1 to 1 | 0.01 to 0.1 | 0.01 to 0.1 | 0.01 to 0.1 | 0.01 to 0.1 | 0.01 to 0.1 | 0.1 to 1 | 0.1 to 1 | – | IC50 [6, 19]: 0.01 to 0.1 µM; IC50 [8, 20]: < 0.01 µM
C=CC(=O)N1CC[C@H](C(=O)N(C)[C@H](C(=O)N[C@H]2C[C@H]3CN(CCO3)c3ccc4c(c3)c(c(-c3cccnc3[C@H](C)OC)n4CC)CC(C)(C)COC(=O)[C@@H]3CCCN(N3)C2=O)C(C)C)C1 (racemic) [Example A507] | – | – | – | – | – | – | > 10 | > 10 | > 10 | – | IC50 [12, 21]: 0.1 to 1 µM; IC50 ([1]; KRAS G12C FRET data IC50, KRAS G12C): 0.1 to 1 µM; IC50 ([2]; KRAS G12D FRET data, IC50): > 10 µM; IC50 ([3]; KRAS G12S FRET data, IC50): 1 to 10 µM; IC50 ([4]; KRAS G12V FRET data IC50, KRAS G12V): 1 to 10 µM; IC50 ([5]; KRAS G13C FRET data IC50, KRAS G13C): 1 to 10 µM; IC50 ([6]; KRAS G13D FRET data IC50, KRAS G13D): > 10 µM; IC50 ([8]; NRAS G12C FRET data IC50, NRAS G12C): 0.1 to 1 µM
CCn1c(-c2cccnc2[C@H](C)OC)c2c3cc(ccc31)-c1csc(n1)C[C@H](NC(=O)[C@H](C(C)C)N(C)C(=O)N1[C@H](C)COC[C@H]1C)C(=O)N1CCC[C@H](N1)C(=O)OCC(C)(C)C2 (atropisomer, axis not shown) [Example A275] | – | – | – | – | – | – | < 0.01 | < 0.01 | 0.01 to 0.1 | 0.01 to 0.1 | –
CCn1c(-c2cccnc2[C@H](C)OC)c2c3cc(ccc31)-c1cc(O)cc(c1)C[C@H](NC(=O)[C@@H]1[C@H](C)CCN1C(C)=O)C(=O)N1CCC[C@H](N1)C(=O)OCC(C)(C)C2 [Example A144] | – | – | – | – | – | – | 0.1 to 1 | 0.1 to 1 | 1 to 10 | 0.1 to 1 | –
C=CC(=O)N1CC2(CCN2C(=O)N(C)[C@H](C(=O)N[C@H]2Cc3nc(n(C)n3)-c3ccc4c(c3)c(c(-c3cccnc3[C@H](C)OC)n4CC)CC(C)(C)COC(=O)C3CCCN(N3)C2=O)C(C)C)C1 (stereo partly drawn) [Example A612] | 0.01 to 0.1 µM | 0.1 to 1 | 0.1 to 1 | 0.1 to 1 | 0.1 to 1 | 0.1 to 1 | 0.01 to 0.1 | 0.01 to 0.1 | 0.01 to 0.1 | – | IC50 [12, 21]: 0.1 to 1 µM; IC50 [6, 19]: 0.1 to 1 µM; IC50 [8, 20]: < 0.01 µM
CCn1c(-c2cccnc2[C@H](C)OC)c2c3cc(ccc31)-c1cc(O)cc(c1)C[C@H](NC(=O)C13CCCC1C3(F)F)C(=O)N1CCC[C@H](N1)C(=O)OCC(C)(C)C2 (stereo partly drawn) [Example A180] | – | – | – | – | – | – | 0.1 to 1 | 1 to 10 | 1 to 10 | 1 to 10 | –
CCn1c(-c2cnccc2COC)c2c3cc(ccc31)-c1cc(O)cc(c1)C[C@H](NC(=O)[C@H](C(C)C)N(C)C(=O)[C@H]1CCN(C(=O)/C=C/CN(C)C)C1)C(=O)N1CCC[C@H](N1)C(=O)OCC(C)(C)C2 [Example A087] | 0.01 to 0.1 µM | 0.1 to 1 | 0.01 to 0.1 | 0.01 to 0.1 | 0.1 to 1 | 0.1 to 1 | 0.01 to 0.1 | 0.1 to 1 | 0.1 to 1 | – | –
CCn1c(-c2cccnc2[C@H](C)OC)c2c3cc(ccc31)-c1cc(O)cc(c1)C[C@H](NC(=O)C(C)Cc1ccncc1)C(=O)N1CCC[C@H](N1)C(=O)OCC(C)(C)C2 (stereo partly drawn) [Example A179] | – | – | – | – | – | – | 0.1 to 1 | 1 to 10 | 1 to 10 | 0.1 to 1 | –
CCn1c(-c2cccnc2[C@H](C)OC)c2c3cc(ccc31)-c1csc(n1)C[C@H](NC(=O)[C@H](C(C)C)N(C)C(=O)N1CC([C@@H](C)OC)C1)C(=O)N1CCC[C@H](N1)C(=O)OCC(C)(C)C2 (atropisomer, axis not shown) [Example A278] | – | – | – | – | – | – | – | 0.01 to 0.1 | 0.01 to 0.1 | 0.01 to 0.1 | IC50 ([12]; NCI-H358, 120 h, 5-day treatment, read-out: H358 Cell Viability assay data (K-Ras G12C, IC50)): < 0.01 µM
C=CC(=O)N1CC[C@H](C(=O)N(C)[C@H](C(=O)N[C@H]2Cc3cc(O)cc(c3)-c3ccc4c(c3)c(c(C3=C(COC)CCCC3)n4CC)CC(C)(C)COC(=O)[C@@H]3CCCN(N3)C2=O)C(C)C)C1 [Example A064] | 0.01 to 0.1 µM | > 10 | 0.1 to 1 | 1 to 10 | 1 to 10 | 1 to 10 | 0.1 to 1 | 1 to 10 | 1 to 10 | – | –
C=CC(=O)N1CC[C@H](C(=O)N(C)[C@H](C(=O)N[C@H]2Cc3cc(O)cc(c3)-c3ccc4c(c3)c(c(-c3cccnc3N3CC(OC)C3)n4CC)CC(C)(C)COC(=O)[C@@H]3CCCN(N3)C2=O)C(C)C)C1 [Example A060] | 0.1 to 1 µM | > 10 | 1 to 10 | 1 to 10 | 1 to 10 | > 10 | 1 to 10 | 1 to 10 | > 10 | – | –
C=CC(=O)N1CC[C@H](C(=O)N(C)[C@H](C(=O)N[C@H]2Cc3cc(O)cc(c3)-c3ccc4c(c3)c(c(-c3ccccc3N3CCOCC3)n4CC)CC(C)(C)COC(=O)[C@@H]3CCCN(N3)C2=O)C(C)C)C1 [Example A026] | 0.1 to 1 µM | > 10 | > 10 | > 10 | > 10 | > 10 | 1 to 10 | > 10 | > 10 | – | –
C=CS(=O)(=O)N1CC[C@H](C(=O)N(C)[C@H](C(=O)N[C@H]2Cc3cccc(c3)-c3ccc4c(c3)c(c(-c3cncnc3)n4CC)CC(C)(C)COC(=O)[C@@H]3CCCN(N3)C2=O)C(C)C)C1 [Example A171] | 1 to 10 µM | > 10 | > 10 | > 10 | 1 to 10 | > 10 | > 10 | > 10 | > 10 | – | IC50 [12, 21]: 0.1 to 1 µM; IC50 [6, 19]: > 10 µM; IC50 [8, 20]: 1 to 10 µM

Reference: patent US20230233569A1 (Revolution Medicines, Inc., priority 2020, published 2023)
